Measured values published in US6476034B2, “Antiviral azaindole derivatives” (priority 2000, dated 2002).

Test system: single-round infectious HIV-1 reporter virus
Assay: microbe, parasite or virus in culture
Assay type: cell-based
Details: for Average % inhibition at or <10 μM: HeLa CD4 CCR5 cells, luciferase expression 3 days (72 hours) after infection, compounds tested below 10 μM: % inhibition at 10 μM extrapolated with XLfit, mean of at least two experiments; for EC50: Human immunodeficiency virus 1, HeLa-CD4/CCR5; for inhibition at 10 µM: Human immunodeficiency virus 1, HeLa-CD4/CCR5, 72 h, read-out: Average % inhibition at or <10 μM

Row | Molecule | Average % inhibition at or <10 μM [%] | EC50 [nM] | inhibition at 10 µM [%]
1 | C[C@@H]1CN(c2ccccn2)CCN1C(=O)C(=O)c1c[nH]c2ncccc12 [Compound 5k, (R)-N-(pyridin-2-yl)-3-methyl/N′-[(7-azaindol-3-yl)-oxoacetyl]-piperazine] | >99 | – | –
2 | C[C@@H]1CN(C(=O)c2ccccc2)CCN1C(=O)C(=O)c1cn(C)c2ncccc12 [Compound 21a, (R)-N-(benzoyl)-3-methyl-N′-[(1-methyl-7-azaindol-3-yl)-oxoacetyl]-piperazine] | – | < 1000 | 70
3 | C[C@@H]1CN(C(=O)c2ccccc2)CCN1C(=O)C(=O)c1c[nH]c2nccc(NO)c12 [Compound 19a, (R)-N-(benzoyl)-3-methyl-N′-[(4-hydroxylamino-7-azaindol-3-yl)-oxoacetyl]-piperazine] | – | < 1000 | 98
4 | CCC1CN(C(=O)c2c[nH]c3ncccc23)CCN1C(=O)c1ccccc1 (stereo not drawn) [Compound 5c, N-(benzoyl)-2-ethyl-N′-[(7-azaindol-3-yl)-carbonyl]-piperazine] | – | < 1000 | 80
5 | C[C@@H]1CN(C(=O)c2ccccc2)CCN1C(=O)C(=O)c1c[nH]c2c1c([N+](=O)[O-])cc[n+]2[O-] [Compound 15a, (R)-N-(benzoyl)-3-methyl-N′-[(4-nitro-7-oxide-7-azaindol-3-yl)-oxoacetyl]-piperazine] | 70 | – | –
6 | C[C@@H]1CN(C(=O)c2ccccc2)CCN1C(=O)C(=O)c1c[nH]c2c(N(C)C)nccc12 [Compound 27c, (R)-N-(benzoyl)-3-methyl-N′-[(7-dimethylamino-6-azaindol-3-yl)-oxoacetyl]-piperazine] | – | < 1000 | 63
7 | C[C@@H]1CN(C(=O)c2ccccc2)CCN1C(=O)C(=O)c1c[nH]c2nccc([N+](=O)[O-])c12 [Compound 18a, (R)-N-(benzoyl)-3-methyl-N′-[(4-nitro-7-azaindol-3-yl)-oxoacetyl]-piperazine] | – | 1000 to 5000 | 80
8 | CC(C)C1CN(C(=O)C(=O)c2c[nH]c3ncccc23)CCN1C(=O)c1ccccc1 (stereo not drawn) [Compound 5ac, N-(benzoyl)-2-iso-Propyl-N′-[(7-azaindol-3-yl)-oxoacetyl]-piperazine] | – | > 400 | –
9 | N-(pyridin-2-yl)-N′-[(7-azaindol-3-yl)-oxoacetyl]-piperazine [Compound 5j] | 90 | – | –
10 | (R)-N-(benzoyl)-3-methyl-N′-[(4 or 6)-methyl-7-azaindol-3-yl)-oxoacetyl]-piperazine [Compound 11a] | 99 | – | –
11 | COc1ccnc2[nH]cc(C(=O)C(=O)N3CCN(C(=O)c4c(F)c(F)c(N=[N+]=[N-])c(F)c4F)C[C@H]3C)c12 [Compound 5n, (R)-N-(4-azido-2,3,5,6-tetra-fluorobenzoyl)-3-methyl-N′-[(4-methoxy-7-azaindol-3-yl)-oxoacetyl]-piperazine] | – | < 1000 | 93
12 | C[C@H]1CN(C(=O)c2ccccc2)CCN1C(=O)C(=O)c1c[nH]c2ncccc12 [Compound 5f, (S)-N-(benzoyl)-3-methyl-N′-[(7-azaindol-3-yl)-oxoacetyl]-piperazine] | – | < 1000 | 80
13 | C[C@@H]1CN(C(=O)c2ccccc2)CCN1C(=O)C(=O)c1c[nH]c2nc(O)ccc12 [Compound 14a, (R)-N-(benzoyl)-3-methyl-N′-[(6-hydroxyl-7-azaindol-3-yl)-oxoacetyl]-piperazine] | – | – | > 99
14 | C[C@@H]1CN(C(=O)c2ccccc2)CCN1C(=O)C(=O)c1c[nH]c2cccnc12 [Compound 5w, (R)-N-(benzoyl)-3-Methyl-N′-[(4-azaindol-3-yl)-oxoacetyl]-piperazine] | – | < 1000 | 98
15 | (R)-N-(benzoyl)-3-methyl-N′-[(4 or 6)-5phenyl-7-azaindol-3-yl)-oxoacetyl]-piperazine [Compound 11b] | 85 | – | –
16 | C[C@@H]1CN(C(=O)c2ccccc2)CCN1C(=O)C(=O)c1c[nH]c2c[n+]([O-])ccc12 [Compound 8b, (R)-N-(benzoyl)-3-methyl-N′-[(6-oxide-6-azaindol-3-yl)-oxoacetyl]-piperazine] | 91 | – | –
17 | CCCSc1cc[n+]([O-])c2[nH]cc(C(=O)C(=O)N3CCN(C(=O)c4ccccc4)C[C@H]3C)c12 [Compound 16e, (R)-N-(benzoyl)-3-methyl-N′-[(4-propylthio-7-oxide-7-azaindol-3-yl)-oxoacetyl]-piperazine] | 50 | – | –
18 | CC(C)C1CN(C(=O)c2c[nH]c3ncccc23)CCN1C(=O)c1ccccc1 (stereo not drawn) [Compound 5ad, N-(benzoyl)-2-iso-Propyl-N′-[(7-azaindol-3-yl)-carbonyl]-piperazine] | – | > 500 | –
19 | C[C@@H]1CN(C(=O)c2ccccc2)CCN1C(=O)C(=O)c1c[nH]c2nccc(N)c12 [Compound 20a, (R)-N-(benzoyl)-3-methyl-N′-[(4-amino-7-azaindol-3-yl)-oxoacetyl]-piperazine] | – | < 1000 | 95
20 | C[C@@H]1CN(C(=O)c2ccccc2)CCN1C(=O)C(=O)c1c[nH]c2ncccc12 [Compound 5a, (R)-N-(benzoyl)-3-methyl-N′-[(7-azaindol-3-yl)-oxoacetyl]-piperazine] | – | < 1000 | > 99
21 | COc1ccnc2[nH]cc(C(=O)C(=O)N3CCN(C(=O)c4ccccc4)C[C@@H]3C)c12 [Compound 17d, (S)-N-(benzoyl)-3-methyl-N′-[(4-methoxy-7-azaindol-3-yl)-oxoacetyl]-piperazine] | – | < 1000 | 98
22 | CCC1CN(C(=O)C(=O)c2c[nH]c3ncccc23)CCN1C(=O)c1ccccc1 (stereo not drawn) [Compound 5b, N-(benzoyl)-2-ethyl-N′-[(7-azaindol-3-yl)-oxoacetyl]-piperazine] | – | < 1000 | 90
23 | Cc1cc(Cl)nc2c(C(=O)C(=O)N3CCN(C(=O)c4ccccc4)C[C@H]3C)c[nH]c12 [Compound 5ak, (R)-N-(benzoyl)-3-Methyl-N′-[(5-Chloro-7-methyl-4-azaindol-3-yl)-oxoacetyl]-piperazine] | – | < 1000 | –
24 | CCCSc1ccc2c(C(=O)C(=O)N3CCN(C(=O)c4ccccc4)C[C@H]3C)c[nH]c2n1 [Compound 17f, (R)-N-(benzoyl)-3-methyl-N′-[(6-propylthiol-7-azaindol-3-yl)-oxoacetyl]-piperazine] | >99 | – | –
25 | C[C@H]1CN(C(=O)c2ccccc2)CCN1C(=O)C(=O)c1c[nH]c2cnccc12 [Compound 5s, (S)-N-(benzoyl)-3-Methyl-N′-[(6-azaindol-3-yl)-oxoacetyl]-piperazine] | – | > 500 | 56
26 | CC(C)Oc1ccnc2[nH]cc(C(=O)C(=O)N3CCN(C(=O)c4ccccc4)C[C@H]3C)c12 [Compound 17c, (R)-N-(benzoyl)-3-methyl-N′-[(4-(1-methylethoxy)-7-azaindol-3-yl)-oxoacetyl]-piperazine] | – | < 1000 | > 99
27 | CC(=O)Oc1ccc2c(C(=O)C(=O)N3CCN(C(=O)c4ccccc4)C[C@H]3C)cn(C(C)=O)c2n1 [Compound 13a, (R)-N-(benzoyl)-3-methyl-N′-[(1-acetyl-6-acetoxy-7-azaindol-3-yl)-oxoacetyl]-piperazine] | – | < 1000 | > 99
